“And” between values parts separate entries of the source, which are not always exact repeats. Equal entries are not always repeated. Where two headings read alike, the source gives them in different places. Marks after values point to notes of the source that are not given here.
Key:
[1] = test system: differentiated Caco-2 cells; assay: WST-1 cytotoxicity assay, viability of differentiated Caco-2 cells after 2 h exposure; type: cell-based, Human; conditions: for the mixture: concentration of each AGE
Protocol: (§1) Human colon carcinoma cells (Caco-2 cells) were obtained from the American Type Culture Collection (ATCC, Rockville, MD, USA). Caco-2 cells were cultured in complete culture medium, composed of DMEM GlutaMAX with 10% FBS (v/v), 1% P/S (v/v), and 1% NEAA (v/v) at 37 °C in a 5% (v/v) CO2 incubator. In this study, Caco-2 cells within passages 10–15 were utilized.
The WST-1 assay was used to quantify the viability of differentiated Caco-2 cells upon exposure to the individual AGEs and their equimolar mixture. To this end, Caco-2 cells were seeded in 96-well plates at 3 × 10^4 cells/well (100 μL) and incubated at 37 °C under 5% (v/v) CO2 for 20 days. The complete culture medium was refreshed on each alternate day. After full differentiation, the culture medium was removed, and the cells were washed with HBSS (containing 1% (v/v) HEPES) twice on the testing day. The same volume (100 μL) of HBSS containing a series of concentrations of the different individual test compounds or of a mixture containing all 10 AGEs was added from a 20-times-concentrated stock solution in HBSS. The test concentrations were designed based on the estimated daily intake of total AGEs (0.55–0.66 mg/(kg·day)) and high-exposure scenarios (1.4–1.8 mg/(kg day)). […] After exposure for 2 h, the absorbance at 440 and 620 nm was measured in a plate spectrophotometer (Molecular Devices, San Jose, CA, USA, Spectra Max M2). After measurement, the cell viability was calculated as cell viability (%)=(Atested 440 nm−Atested 620 nm)/(Acontrol 440 nm−Acontrol 620 nm)×100

[2] = Transport of AGE mixture across Caco-2 cell layer (transwell, apical to basolateral); type: in vitro ADME, Human; conditions: human; for recovery at 2 h, 100 μmol/L: read-out: percentage of the amount added at the apical side at t = 0: recovery; for Papp at 120 min, 100 μmol/L: data from 120 min
Protocol: as §1
(§2) Caco-2 cells were cultured until reaching 50%–60% confluence (undifferentiated Caco-2 cells), followed by trypsinization. Then, cells were seeded at 3 × 10^4 cells per insert in 100 μL of complete culture medium into the transwell inserts of a 24-well transwell plate, and 600 μL of complete culture medium was added to the basolateral compartments. In both the apical and basolateral compartments, the medium was renewed every other day. After 2 weeks, the transepithelial electrical resistance (TEER) value was measured using a Millicell ERS-2 Electrical Resistance System (Burlington, MA, USA) every other day. Only wells with a TEER value of >400 Ω/cm^2 were used for transport experiments. Moreover, the TEER value was measured before and after the transport experiment to ascertain that the Caco-2 cell layer remained intact during the whole transport experiment.
(§3) Transport experiments were performed after 20 days of differentiation of the Caco-2 cells. The culture medium was replaced with HBSS (containing 1% (v/v) HEPES) 30 min prior to testing in both the apical and basolateral compartments. After the 30 min preincubation, 100 μL of HBSS containing a mixture of the 10 different AGEs including CML, CEL, GALA, argpyrimidine, MG-H1, GOLD, GOLA, MOLD, pentosidine, and pyrraline, each at 100 μmol/L, was added to the apical compartment after removing the preincubation medium, while the basolateral medium was replaced by 600 μL of HBSS. […] At 120 min, a 10 μL sample from the apical side was taken for calculating apical side retention (nontransported percentage).
(§4) The apparent permeability coefficient (Papp) value was calculated according to the methodology described by Yee.
(§5) AGEs were quantified by LC-MS using a Shimadzu Nexera XR LC-40D XR UPLC system (Kyoto, Japan) equipped with a UPLC Amide column (100 mm × 2.1 mm, 1.7 μm) without derivatization coupled with a Shimadzu LCMS-8045 triple quadrupole mass spectrometer (Kyoto, Japan). The analytical column was maintained at 40 °C throughout the quantification process. A multistep binary gradient system of water containing 0.1% (v/v) formic acid (solvent A) and acetonitrile containing 0.1% (v/v) formic acid (solvent B) was used. In the whole gradient program, the total proportion of solvents A and B is always equal to 100%. The gradient program was designed as follows: 75% solvent B to 12.5% solvent B from 0 to 10 min, followed by 12.5% solvent B from 10 to 11 min. […] The initial flow rate was set to 0.30 mL/min. Subsequently, it was reduced to 0.25 mL/min at 0.3 min, which was kept until 10 min. Afterward, there was a gradual decrease, reaching 0.15 mL/min at 11 min, and this rate was maintained until 12 min. […] Between 1 and 11 min of gradient running, the line was set to MS, and for the other time periods, the line was set to waste. The retention time and mass spectrometry parameters of individual AGEs are listed in Table S1 and the chromatograms of the samples are shown in Figure S1.

Caco-2 cell layer = assay: as above; type: in vitro ADME, Human; conditions: for percentage of the amount added at the apical side at t = 0: apical side / percentage of the amount added at the apical side at t = 0: basolateral side / percentage of the amount added at the apical side at t = 0: apical side (nontransported) / percentage of the amount added at the apical side at t = 0: basolateral side (transported): mixture, each AGE 100 μmol/L, 2 h; for percentage of the amount added at the apical side at t = 0: apical side (nontransported) / percentage of the amount added at the apical side at t = 0: basolateral side (transported): standard treatment
Protocol: as §1, §2, §3, §4, §5

PepT1 = assay: as above; type: in vitro ADME, Human; conditions: human, mixture, each AGE 100 μmol/L; for recovery at 2 h, 100 μmol/L: Caco-2, with Gly-Sar 10 mmol/L (apical compartment), Gly-Sar 10 mmol/L, read-out: percentage of the amount added at the apical side at t = 0: recovery; for Papp at 120 min, 100 μmol/L: Caco-2, with Gly-Sar 10 mmol/L (apical), 10 mmol/L Gly-Sar apical (PepT1 inhibition), data from 120 min
Protocol: as §1, §2, §3, §4, §5

Caco-2 cell monolayer = assay: Accumulation of AGEs in the Caco-2 cell monolayer after transport experiment; type: in vitro ADME, Human; conditions: 2 h; for percentage of the amount added at the apical side at t = 0: accumulation / percentage of the amount added at the apical side at t = 0: accumulation (intracellular): mixture, each AGE 100 μmol/L
Protocol: After the transport experiment, the cell monolayer on the inset membrane was washed three times with HBSS and three times with PBS. […] The samples were subsequently centrifuged at 16 000g for 20 min at 4 °C, and the supernatant was collected for further analysis by LC-MS.
as §5, with “The” for “AGEs were quantified by LC-MS using a Shimadzu Nexera XR LC-40D XR UPLC system (Kyoto, Japan) equipped with a UPLC Amide column (100 mm × 2.1 mm, 1.7 μm) without derivatization coupled with a Shimadzu LCMS-8045 triple quadrupole mass spectrometer (Kyoto, Japan). The”, “100%.” for “100%. The gradient program was designed as follows: 75% solvent B to 12.5% solvent B from 0 to 10 min, followed by 12.5% solvent B from 10 to 11 min.”

[3] = Caco-2, 4 °C, mixture, each AGE 100 μmol/L
[4] = Caco-2, cytochalasin D pretreatment, mixture, each AGE 100 μmol/L
[5] = Caco-2, standard treatment (37 °C), equimolar mixture of 10 AGEs, each 100 μmol/L apical
[6] = Caco-2, standard treatment, mixture, each AGE 100 μmol/L
[7] = Caco-2, cytochalasin D 1 μg/mL, 30 min apical preincubation, mixture, each AGE 100 μmol/L

SMILES | concentration that did not significantly affect cell viability [1] [µM] | recovery at 2 h, 100 μmol/L [2, 3] [%] | Papp at 120 min, 100 μmol/L [2, 3] [×10⁻⁶ cm/s] | recovery at 2 h, 100 μmol/L [2, 4] [%] | Papp at 120 min, 100 μmol/L [2, 5] [×10⁻⁶ cm/s] | recovery at 2 h, 100 μmol/L [2, 6] [%] | Papp at 120 min, 100 μmol/L [2, 7] [×10⁻⁶ cm/s] | percentage of the amount added at the apical side at t = 0: apical side (Caco-2 cell layer; 4 °C) | percentage of the amount added at the apical side at t = 0: basolateral side (Caco-2 cell layer; 4 °C) | percentage of the amount added at the apical side at t = 0: basolateral side (Caco-2 cell layer; Gly-Sar 10 mmol/L) | percentage of the amount added at the apical side at t = 0: apical side (Caco-2 cell layer; cytochalasin D pretreatment) | percentage of the amount added at the apical side at t = 0: basolateral side (Caco-2 cell layer; cytochalasin D pretreatment) | percentage of the amount added at the apical side at t = 0: apical side (nontransported) (Caco-2 cell layer) | percentage of the amount added at the apical side at t = 0: basolateral side (transported) (Caco-2 cell layer) | recovery at 2 h, 100 μmol/L (PepT1) [%] | Papp at 120 min, 100 μmol/L (PepT1) [×10⁻⁶ cm/s] | percentage of the amount added at the apical side at t = 0: accumulation (Caco-2 cell monolayer; 4 °C) | percentage of the amount added at the apical side at t = 0: accumulation (Caco-2 cell monolayer; Gly-Sar 10 mmol/L) | percentage of the amount added at the apical side at t = 0: accumulation (Caco-2 cell monolayer; cytochalasin D pretreatment) | percentage of the amount added at the apical side at t = 0: accumulation (intracellular) (Caco-2 cell monolayer; standard treatment) | also measured
CC1NC(NCCC[C@H](N)C(=O)O)=NC1=O (some centres unmarked) [MG-H1, methylglyoxal–hydroimidazolone] | ≤ 750 | 89.7 ± 5.4 | 0.107 | 94.6 ± 4.2 | 0.182 | 94.1 ± 3.6 | 0.526 | 89.7 ± 5.5 ^a % | 0.3 ± 0.1 ^b % | 0.4 ± 0.2 ^b % | 93.0 ± 4.5 ^a % | 1.2 ± 0.6 ^a % | 93.4 ± 3.6 ^a % | 0.4 ± 0.2 ^b % | 90.8 ± 5.9 | 0.168 | 0.0 ± 0.0 ^b % | 0.3 ± 0.1 ^b % | 0.3 ± 0.1 ^b % | 0.3 ± 0.1 ^a % | percentage of the amount added at the apical side at t = 0: apical side (Caco-2 cell layer; Gly-Sar 10 mmol/L): 90.1 ± 5.8 ^a %
CC(NCCCC[C@H](N)C(=O)O)C(=O)O (some centres unmarked) [CEL, N-ε-(carboxyethyl)-lysine] | ≤ 1500 | 89.1 ± 9.1 | 0.105 | 95.5 ± 5.1 | 0.164 | 96.5 ± 7.2 | 0.507 | 88.8 ± 9.1 ^a % | 0.3 ± 0.1 ^a % | 0.4 ± 0.1 ^a % | 93.1 ± 4.7 ^a % | 1.2 ± 0.6 ^b % | 95.0 ± 7.00 ^a % | 0.4 ± 0.2 ^a % | 89.5 ± 4.8 | 0.149 | 0.0 ± 0.0 ^b % | 1.3 ± 0.2 ^a % | 1.2 ± 0.2 ^a % | 1.1 ± 0.2 ^a % | intracellular accumulation relative to CML (Caco-2 cell monolayer; standard treatment): about half that observed of CML
N[C@@H](CCCCNC(=O)CO)C(=O)O [GALA, glycolic acid–lysine–amide] | ≤ 1500 | 89.3 ± 4.5 | 0.095 | 89.7 ± 4.6 | 0.448 | 86.2 ± 7.1 | 0.87 | 89.1 ± 4.5 ^a % | 0.2 ± 0.1 ^c % | 0.8 ± 0.2 ^b % | 87.4 ± 4.3 ^a % | 2.1 ± 0.8 ^a % | 85.0 ± 7.1 ^a % | 1.1% and 1.06% and 1.1 ± 0.3 ^b % | 85.4 ± 3.6 | 0.321 | 0.0 ± 0.0 ^b % | 0.2 ± 0.1 ^a % | 0.2 ± 0.1 ^a % | 0.2 ± 0.1 ^a % | effect of 4 °C on transport compared to 37 °C (Caco-2 cell layer; 4 °C versus 37 °C): significantly reduced; reduction of the Papp value in the presence of Gly-Sar (Caco-2 cell layer; Gly-Sar 10 mmol/L versus standard): 28%; percentage of the amount added at the apical side at t = 0: apical side (Caco-2 cell layer; Gly-Sar 10 mmol/L): 84.4 ± 3.6 ^a %

Source: article PMC12426922, “Fingerprinting the Intestinal Transport of Low-Molecular-Mass Advanced Glycation End-Products (AGEs) Using a Caco‑2 Transwell Model” (Journal of Agricultural and Food Chemistry, 2025)
